pKi: −log10 of the molar value.

By pKi is commonly meant the Ki on a negative log10 scale, so that one unit is a factor of ten.

In one test the target is T1, PknB (Mycobacterium tuberculosis, UniProt P9WI81).
T1 construct: made in house
The experiment in a line: biochemical. Details: species or system M. tuberculosis. As to conditions: 3 nM PknB, 6 uM GarA, 3 μM ATP, 30 min, competitive tight-binding fit, several symbols in a cell = repeat determinations; for pKi: read-out: Ki Values.

Test [1] deals with Mycobacterium tuberculosis H37Ra. The experiment in a line: Mycobacterium tuberculosis growth inhibition assay (microtiter dilution, resazurin reduction). In kind it is cell-based. The conditions noted are these: 7H9 broth, 9 days + 24 h resazurin, lowest concentration inhibiting resazurin reduction by >70%, several symbols in a cell = repeat determinations. In short, it runs like this: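 Resazurin-based microtiter dilution MIC: compounds in 7- or 11-step two-fold series with ~1×10^6 cells/mL H37Ra in 7H9/10% ADC, 9 days at 37 °C, then 24 h with dye. MIC is the lowest concentration giving >70% inhibition of resazurin reduction relative to DMSO controls, by 492/595 nm fluorescence.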
(In general: Alamar Blue is a resazurin reagent that responds to reducing activity.)

T1 sequence (P9WI81 whole entry): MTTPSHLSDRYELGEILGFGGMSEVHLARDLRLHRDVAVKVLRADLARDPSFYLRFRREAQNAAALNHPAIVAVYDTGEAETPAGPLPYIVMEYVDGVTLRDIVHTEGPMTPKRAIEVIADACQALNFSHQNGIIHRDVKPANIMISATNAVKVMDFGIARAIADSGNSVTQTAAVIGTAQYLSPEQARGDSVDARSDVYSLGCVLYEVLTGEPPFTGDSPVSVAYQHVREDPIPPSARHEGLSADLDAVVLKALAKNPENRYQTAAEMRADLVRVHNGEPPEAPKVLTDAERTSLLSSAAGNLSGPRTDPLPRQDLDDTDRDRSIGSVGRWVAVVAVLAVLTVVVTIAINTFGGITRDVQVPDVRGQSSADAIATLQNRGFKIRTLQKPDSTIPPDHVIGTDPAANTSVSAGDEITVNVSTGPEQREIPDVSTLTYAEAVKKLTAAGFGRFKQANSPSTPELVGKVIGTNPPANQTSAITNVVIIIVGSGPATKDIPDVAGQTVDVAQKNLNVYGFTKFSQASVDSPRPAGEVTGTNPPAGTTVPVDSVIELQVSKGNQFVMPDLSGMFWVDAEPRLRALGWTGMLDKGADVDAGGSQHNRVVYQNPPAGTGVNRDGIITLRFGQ

Consider `O=S(=O)(c1ccc(-c2ncc(Cl)c(Nc3cc(C4CC4)[nH]n3)n2)s1)N1CCCC1` [Compound 98, 5-chloro-N-(5-cyclopropyl-1H-pyrazol-3-yl)-2-(5-pyrrolidin-1-ylsulfonyl-2-thienyl)-pyrimidin-4-amine], for which the pKi on PknB was 8.00 to 9.00. For the same compound, in test [1], the MIC values result is “B, C”.
In the case of `NS(=O)(=O)c1ccc(-c2nc(Nc3cc(C4CC4)n[nH]3)cc(N3CCCC3)n2)s1` [Compound 284, 5-[4-[(5-cyclopropyl-2H-pyrazol-3-yl)amino]-6-pyrrolidin-1-yl-pyrimidin-2-yl]thiophene-2-sulfonamide], the negative logarithm of the Ki (pKi) at PknB was 6.30 to 7.00. In addition, the MIC values result in test [1] is on record as “B++”.
Take `CC(O)c1cccc(-c2nccc(Nc3cc(C4CC4)[nH]n3)n2)c1` (stereo not drawn) [Compound 316, 1-[3-[4-[(5-cyclopropyl-1H-pyrazol-3-yl)amino]pyrimidin-2-yl]phenyl]ethanol]: at PknB, the pKi was 7.30 to 8.00. Moreover, in test [1], the MIC values result is reported as “B+”.
Turning to `NS(=O)(=O)c1ccc(-c2ncc(C(F)(F)F)c(Nc3cc(C4CC4)[nH]n3)n2)s1` [Compound 159, 5-(4-(5-cyclopropyl-1H-pyrazol-3-ylamino)-5-(trifluoromethyl)pyrimidin-2-yl)thiophene-2-sulfonamide], the pKi at PknB was 6.30 to 7.00. Also, in test [1], the MIC values entry is given as “B+”.
For the compound `CS(=O)(=O)Nc1ccc(-c2ncc(Cl)c(Nc3cc(C4CC4)[nH]n3)n2)cc1` [Compound 105, N-[4-[5-chloro-4-[(5-cyclopropyl-1H-pyrazol-3-yl)amino]pyrimidin-2-yl]phenyl]methanesulfonamide], at PknB, the negative logarithm of the Ki (pKi) is 7.30 to 8.00. For the same compound, the MIC values entry in test [1] is reported as “B+”.
`CC(C#N)c1ccc(-c2ncc(Cl)c(Nc3cc(C4CC4)[nH]n3)n2)s1` (stereo not drawn) [Compound 226, 2-[5-[5-chloro-4-[(5-cyclopropyl-1H-pyrazol-3-yl)amino]-pyrimidin-2-yl]-2-thienyl]propanenitrile]: at PknB, the pKi was 7.30 to 8.00. In addition, in test [1], the MIC values entry is “B++”.
With `C#Cc1cnc(N2CC[C@@H](NC(=O)OC(C)(C)C)C2)nc1Nc1cc(C2CC2)n[nH]1` [Compound 173, tert-butyl [[1-[4-[(5-cyclopropyl-2H-pyrazol-3-yl)amino]-5-ethynyl-pyrimidin-2-yl]pyrrolidin-3-yl]amino]formate], the “Ki Values” on PknB was “B, C”. In test [1], the MIC values result is given as “B+”.
As for `Cc1nc(-c2ccc(S(N)(=O)=O)s2)nc(Nc2cc(C3CC3)[nH]n2)c1Cl` [Compound 266, 5-[5-chloro-4-[(5-cyclopropyl-1H-pyrazol-3-yl)amino]-6-methyl-pyrimidin-2-yl]thiophene-2-sulfonamide], the negative-log Ki (pKi) at PknB is 8.00 to 9.00. Besides, the MIC values entry in test [1] is listed as “A+, A, A, C”.
The matching figures for `C#Cc1cnc(-c2ccc(S(=O)(=O)NC)s2)nc1Nc1cc(C2CC2)n[nH]1` [Compound 113, 5-(4-(3-cyclopropyl-1H-pyrazol-5-ylamino)-5-ethynylpyrimidin-2-yl)-N-methylthiophene-2-sulfonamide]: 8.00 to 9.00 and “B+”.
For `CN(CCO)S(=O)(=O)c1ccc(-c2ncc(Cl)c(Nc3cc(C4CC4)[nH]n3)n2)s1` [Compound 129, 5-(5-Chloro-4-(5-cyclopropyl-1H-pyrazol-3-ylamino)pyrimidin-2-yl)-N-(2-hydroxyethyl)-N-methylthiophene-2-sulfonamide] the same measures were 8.00 to 9.00 and “B++”.
Take `C#Cc1c(C)nc(-c2ccc(S(N)(=O)=O)s2)nc1Nc1cc(C2CC2)[nH]n1` [Compound 267, 5-(4-(3-cyclopropyl-1H-pyrazol-5-ylamino)-5-ethynyl-6-methylpyrimidin-2-yl)thiophene-2-sulfonamide]: the negative logarithm of the Ki (pKi) on PknB is 8.00 to 9.00. The MIC values entry in test [1] is “A+, A”.
For `CC(O)c1ccc(-c2ncc(F)c(Nc3cc(C4CC4)[nH]n3)n2)s1` (stereo in doubt) [Compound 147, (R)-1-(5-(4-(5-cyclopropyl-1H-pyrazol-3-ylamino)-5-fluoropyrimidin-2-yl)thiophen-2-yl)ethanol], the negative-log Ki (pKi) at PknB is 7.30 to 8.00. Further, in test [1], the MIC values result was “B++”.
